{"source": "patent US6133313A", "about": "“Insecticidal avocadofurans and triolein” (The Regents of the University of California, priority 1998, dated 2000)", "type_in_all_cases": "in vivo, Spodoptera exigua", "key": {"S. exigua larvae": {"tested_on": "S. exigua larvae", "experiment": "growth inhibition and mortality of synthetic avocadofurans and triolein in diet bioassay", "set-up": "key to GI (growth index): growth index calculated per J. Chem. Ecol. 19:1109 (1993), imax = 3", "conditions": "for 7-d Instar / 7-d Larval Weight: mean ± SE", "procedure": "S. exigua larvae were used in all experiments. Larvae were reared on artificial diet modified from U.S.D.A. Agric. Res. Serv., Prod. Res. Rep., 1208:1 (1969), and maintained at 28+2° C., 14:10; light:dark (L:D) photoperiod.\nThe colony was collected from Orange Co., Calif. and had new genetic material added within 12 months prior to the study. The age of the cohorts tested was standardized by using neonates within 12 hours of eclosion. All bioassays were maintained at 28+2° C. 75% relative humidity (RH), and at 14:10 (L:D) photoperiod with fluorescent lighting.\nThe insecticidal activity of the fractions was tested with artificial diet bioassays. Treated diets were prepared by transferring 750 μl of acetone solutions of each fraction (equivalent to 300 mg crude idioblast cell oil) into 50-ml polypropylene centrifuge tubes (Fisher, Pittsburgh Pa.), evaporating the acetone, adding 2 ml of 0.1% Tween-80 solution (Fisher), homogenizing with an ultrasonic homogenizer (Co le-Parmer, Chicago Ill.), and adding prepared diet to produce a final weight of 15 g containing the equivalent of 2% idioblast oil. The mixture was vortexed for 3 mm.\nControl diet was prepared by mixing 2 ml of Tween solution and 13 g of artificial diet to produce a final weight of 15 g. Control and treated diets were poured into 24-well (15.9 mm diameter and 15.9 mm depth) bioassay trays (C-D International Inc., Pitman N.J.). One neonate was added per well, and trays were placed in an incubator under the previously described conditions. Twenty-four neonates were tested for each fraction and control. Mortality and larval weights were recorded after 7 days.\nThe effect of the synthetically produced avocado furan compounds (>95% purity) and commercially available triolein (Sigma, St. Louis, Mo.) were tested on larval growth and mortality of S exigua. Treated and control diet were prepared as previously described.\nSix different compound concentrations, chosen on the basis of studies with the oil fractions, were evaluated for both 2-(pentadecyl)furan and 2-(heptadecyl)furan: 0 (control), 600, 750, 900, 1050, and 1200 μg/g. Also, six concentrations of triolein (subfraction 1-1-12) were tested: 0 (control), 7000, 8000, 9000, 10000, and 11000 μg/g.\nTwenty-four neonates were used per treatment. Bioassays were conducted as described in Example 4, and replicated 4 times for each concentration (i.e., a total of 96 larvae were tested for each concentration). Larval weight, instar, and mortality were recorded after 7 days […].\n(§1) EC (effective concentration) values were calculated by subtracting the mean larval weight for each treatment from the mean weight of the controls, and dividing by the mean weight of the controls. LC (lethal concentration) values were obtained using probit analysis as described in Probit Analysis (1971) Cambridge University Press, Cambridge, UK. GI (growth index) and RGI (relative growth index) values were calculated as described in J. Chem. Ecol., 19:1109 (1993), but using an imax of 3 (the stage attained by most control larvae after 7 d). Statistical comparisons were conducted using SuperAnova Abacus Concept Inc., Berkeley, Calif. (1989)."}, "neonate S. exigua": {"tested_on": "neonate S. exigua", "experiment": "individual toxicity of avocadofurans and triolein in artificial diet", "procedure": "In this study, individual activity of avocadofurans was investigated quantitatively. For this purpose, eight concentrations of the avocadofurans (1) and (4) and triolein (8) were tested. Results are seen in FIG. 6.\nFollowing pilot studies, eight concentrations of each were tested: 0, 0.5, 1, 1.5, 2, 2.5, 3, and 3.5 μmoles g^~1 diet. Also, five concentrations of triolein were tested: 0; 1,000; 2,000; 3,000; and 4,000 μg g^~1 diet. Because triolein was not compared to a structurally similar compound, a more standard dietary formulation of μg g-^1 was used rather than ^~ moles g^-1 in all triolein-treated bioassays.\nTreated and control diet were prepared as described above. For each concentration the compounds were dissolved in 10 ml of Tween solution and mixed using an ultrasonic homogenizer. Untreated diet was added to make a total of 100 g and then vortexed for 3 mm. Control diet was prepared by mixing 10 ml of the Tween solution with 90 g of artificial diet to produce a final weight of 100 g. Control and treated diets were poured into 30 ml plastic cups. One neonate was placed in each cup and cups were held in an incubator. Fifteen larvae were tested at each concentration, and assays were replicated 4 times (total of 60 larvae/treatment). For each diet treatment, 9-d larval instar and weight, pupal weights, times to pupation, and larval mortality were recorded.\nas §1"}, "S. exigua": {"tested_on": "S. exigua", "experiment": "synergistic/joint toxicity of avocadofuran and triolein combinations", "description": "The treatments were as follows: Control, 2-(pentadecyl)furan, 2-(heptadecyl)furan, triolein, individually, and 2-(pentadecyl)furan combined with 2-(heptadecyl)furan and triolein, 2-(pentadecyl)furan combined with triolein, and 2-(heptadecyl)furan combined with triolein. Because the combined LC25 s for both avocadofurans exceed their LC50 values, a concentration for each was adjusted so that when added it would approximate the value of the avocadofurans LC50 (see Table 2). These concentrations were used whenever both avocadofurans were combined in the same treatment. Treatments were replicated four times, with 15 larvae per replicate to a total of 60 larvae/treatment.\nJoint effects were determined by testing all combinations of LC25 s (estimated from probit lines shown in Table 1) of the three compounds for toxicity to S. exigua. The treatments were: control, 2-(pentadecyl)furan, 2-(heptadecyl)furan, triolein, 2-(pentadecyl)furan+triolein, 2-(heptadecyl)furan+triolein, and 2-(pentadecyl)furan+2-(heptadecyl)furan+triolein. Because the combined LC25 s for both avocadofurans exceeded their LC50 values (due to a steep slope of their LC lines), a concentration for each was used so that when added together it would approximate the value of the avocadofurans LC50 (Table 1). These concentrations were used whenever both avocadofurans were combined in the same treatment.\nTreatments were replicated four times, with 15 larvae per replicate (total of 60 larvae/treatment). Dietary treatment preparations and bioassay procedures were conducted as described in Example 4. For each diet treatment, 9-d larval instar and weight, pupal weights, times to pupation, and larval mortality were recorded."}, "[1]": {"conditions": "lowest concentration vs controls"}}, "note": "“Also recorded” adds a separate entry of the source."}
{"smiles": "CCCCC/C=C\\C/C=C\\CCCCCCCc1ccco1", "note": "[2-(8Z,11Z-heptadecadienyl)furan]", "values": [{"measurement": "inhibition of S. exigua growth compared to control larvae", "setting": "S. exigua larvae; 1600 μg/g", "value": 54.51, "unit": "%"}, {"measurement": "mortality at 1600 µg/g", "setting": "S. exigua larvae; Spodoptera exigua, feed or water, 1600 μg/g", "value": "< 5", "unit": "%"}, {"measurement": "active concentration relative to the saturated compound (4)", "setting": "S. exigua larvae; in vivo", "value": "twice as high as the saturated compound (4)"}, {"measurement": "comparative toxicity and growth inhibition", "setting": "S. exigua larvae; in words", "value": "of much lower toxicity than 2-(heptadecyl)furan (4)"}, {"measurement": "concentration at which S. exigua growth is inhibited / compound active", "setting": "S. exigua larvae; lowest active concentration, in diet", "value": "≥ 1600", "unit": "µg/g"}]}
{"smiles": "CCCCCCCCCCCCCCCc1ccco1", "note": "[2-(pentadecyl)furan (1), 2-(pentadecyl)furan]", "values": [{"measurement": "growth inhibition (FIG. 6A)", "setting": "neonate S. exigua; 1.5 μmoles g^-1 or higher, 9 d", "value": "more than 50%"}, {"measurement": "LC25 (95% FL)", "setting": "neonate S. exigua; avocadofurans, larval stage", "value": "1.76(1.55-1.93) μmoles g^-1 of diet"}, {"measurement": "LC50 (95% FL)", "setting": "neonate S. exigua; avocadofurans, larval stage", "value": "2.24(2.08-2.39) μmoles g^-1 of diet"}, {"measurement": "effect on pupal weight (FIG. 7)", "setting": "neonate S. exigua; in words", "value": "significantly reduced"}, {"measurement": "larval developmental time from neonate to pupa (FIG. 8)", "setting": "neonate S. exigua; in words", "value": "significantly prolonged"}, {"measurement": "Relative Growth Index (RGI) (FIG. 10)", "setting": "neonate S. exigua; in words, increasing concentrations", "value": "decreased with increasing concentrations"}, {"measurement": "LC50", "setting": "neonate S. exigua; larval stage", "value": 2.2, "unit": "μmoles g^-1 diet"}, {"measurement": "concentration significantly reducing 9-day larval weight (FIG. 6A)", "setting": "neonate S. exigua; [1]", "value": "≥ 1.5", "unit": "µmol/g"}, {"measurement": "concentration significantly reducing pupal weight (FIG. 7A)", "setting": "neonate S. exigua; [1]", "value": "≥ 3", "unit": "µmol/g"}, {"measurement": "Mortality (%) using LC25", "setting": "S. exigua; in vivo", "value": 36.7, "unit": "%"}, {"measurement": "Survival to pupation", "setting": "S. exigua; in vivo", "value": 63.3, "unit": "%"}, {"measurement": "Weight, 9-d larvae", "setting": "S. exigua; mean ± spread", "value": "22.4 ± 2.9", "unit": "mg"}, {"measurement": "Weight, Pupae", "setting": "S. exigua; mean ± spread", "value": "104.3 ± 3.2", "unit": "mg"}, {"measurement": "Developmental times", "setting": "S. exigua; neonate-pupa, in d (unit assumed)", "value": "19.8 ± 0.7"}, {"measurement": "GI (growth index)", "setting": "S. exigua larvae; 600 μg/g", "value": 0.69}, {"measurement": "percent reduction in larval weight vs control", "setting": "S. exigua larvae; 600 μg/g", "value": 72.89, "unit": "%"}, {"measurement": "7-d Instar", "setting": "S. exigua larvae; 600 μg/g", "value": "2.29 ± 0.07"}, {"measurement": "7-d Larval Weight", "setting": "S. exigua larvae; 600 μg/g", "value": "8.50 ± 0.95", "unit": "mg"}, {"measurement": "GI (growth index)", "setting": "S. exigua larvae; 750 μg/g", "value": 0.55}, {"measurement": "percent reduction in larval weight vs control", "setting": "S. exigua larvae; 750 μg/g", "value": 85.83, "unit": "%"}, {"measurement": "7-d Instar", "setting": "S. exigua larvae; 750 μg/g", "value": "2.04 ± 0.07"}, {"measurement": "7-d Larval Weight", "setting": "S. exigua larvae; 750 μg/g", "value": "4.44 ± 0.45", "unit": "mg"}, {"measurement": "GI (growth index)", "setting": "S. exigua larvae; 900 μg/g", "value": 0.26}, {"measurement": "percent reduction in larval weight vs control", "setting": "S. exigua larvae; 900 μg/g", "value": 90.35, "unit": "%"}, {"measurement": "7-d Instar", "setting": "S. exigua larvae; 900 μg/g", "value": "1.74 ± 0.07"}, {"measurement": "7-d Larval Weight", "setting": "S. exigua larvae; 900 μg/g", "value": "3.03 ± 0.35", "unit": "mg"}, {"measurement": "GI (growth index)", "setting": "S. exigua larvae; 1050 μg/g", "value": 0.25}, {"measurement": "percent reduction in larval weight vs control", "setting": "S. exigua larvae; 1050 μg/g", "value": 95.50, "unit": "%"}, {"measurement": "7-d Instar", "setting": "S. exigua larvae; 1050 μg/g", "value": "1.61 ± 0.07"}, {"measurement": "7-d Larval Weight", "setting": "S. exigua larvae; 1050 μg/g", "value": "1.41 ± 0.15", "unit": "mg"}, {"measurement": "GI (growth index)", "setting": "S. exigua larvae; 1200 μg/g", "value": 0.15}, {"measurement": "percent reduction in larval weight vs control", "setting": "S. exigua larvae; 1200 μg/g", "value": 95.78, "unit": "%"}, {"measurement": "7-d Instar", "setting": "S. exigua larvae; 1200 μg/g", "value": "1.56 ± 0.09"}, {"measurement": "7-d Larval Weight", "setting": "S. exigua larvae; 1200 μg/g", "value": "1.32 ± 0.19", "unit": "mg"}, {"measurement": "mortality at 600 µg/g", "setting": "S. exigua larvae; Spodoptera exigua, feed or water, 168 h, 600 μg/g, 7 d", "value": 9.37, "unit": "%"}, {"measurement": "mortality at 750 µg/g", "setting": "S. exigua larvae; Spodoptera exigua, feed or water, 168 h, 750 μg/g, 7 d", "value": 18.8, "unit": "%"}, {"measurement": "mortality at 900 µg/g", "setting": "S. exigua larvae; Spodoptera exigua, feed or water, 168 h, 900 μg/g, 7 d", "value": 32.3, "unit": "%"}, {"measurement": "mortality at 1050 µg/g", "setting": "S. exigua larvae; Spodoptera exigua, feed or water, 168 h, 1050 μg/g, 7 d", "value": 54.2, "unit": "%"}, {"measurement": "mortality at 1200 µg/g", "setting": "S. exigua larvae; Spodoptera exigua, feed or water, 168 h, 1200 μg/g, 7 d", "value": 71.9, "unit": "%"}, {"measurement": "reduction of larval development", "setting": "S. exigua larvae; concentrations above 600 μg/g", "value": "> 70", "unit": "%"}, {"measurement": "LC50 (95% FL)", "setting": "S. exigua larvae; in diet", "value": 1031, "unit": "µg/g"}, {"measurement": "inhibition of larval growth", "setting": "S. exigua larvae; in words", "value": "significantly inhibited larval growth"}, {"measurement": "comparative toxicity and growth inhibition", "setting": "S. exigua larvae; in words, listed as 1", "value": "more toxic and growth inhibitory to S. exigua than either of the unsaturated compounds (2) and (6); also recorded: the most toxic"}, {"measurement": "comparative toxicity and growth inhibition", "setting": "S. exigua larvae; in words, listed as 2-(pentadecyl)furan", "value": "most active of the two major compounds from that subfraction"}, {"measurement": "Relative Growth Index (RGI) vs log concentration regression (FIG. 4)", "setting": "S. exigua larvae; log (μg/g)", "value": "y=5.66-1.79*log(x), r^2 =0.94"}]}
